Nine compounds from the supplement of paper PMC11061612 can be followed below.

Molecules are shown by their SMILES.

Common to all, as to assay: combination Emax (second highest fraction inhibited in the dose matrix, 72 h); higher = more inhibition; extreme values may be limits of the assay
In experiment [1] the test system is SK-UT-1 (Other Solid Carcinomas). Summed up:
(§1)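 Bliss excess equals the observed combination effect minus the expected value EA + EB − EA·EB, where EA and EB are the effects of each agent alone. Combination Emax is the second-highest inhibition within the matrix. Inhibition was scaled from CellTiter-Glo 2.0 luminescence, with 0 set by vehicle wells and 1 by blank wells, after 72 hours of two-drug dosing of cells plated in 1536-well plates.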

Experiment [2] has as its system MES-SA (Other Solid Carcinomas). Summed up: as §1
For experiment [3], the system named is RCC10RGB (Kidney Carcinoma). Summed up: as §1
Experiment [4] deals with JHH-6 (Hepatocellular Carcinoma). An outline of the steps:
as §1

In experiment [5] the test system is 647-V (Bladder Carcinoma). An outline of the steps: as §1
For experiment [6], the system named is DOK (Oral Cavity Carcinoma). An outline of the steps: as §1
In experiment [7] the test system is SKN-3 (Head and Neck Carcinoma). An outline of the steps:
as §1

The subject of experiment [8] is SLVL (B-Cell Non-Hodgkin's Lymphoma). An outline of the steps:
as §1

In experiment [9] the test system is GDM-1 (Acute Myeloid Leukemia). Summed up:
as §1

Experiment [10] deals with SK-LMS-1 (Other Solid Carcinomas). Summed up:
as §1

For experiment [11], the system named is NOMO-1 (Acute Myeloid Leukemia). An outline of the steps: as §1
Experiment [12] concerns MEG-01 (Chronic Myelogenous Leukemia). An outline of the steps:
as §1

Consider `CN(CCO)CC[C@H](CSc1ccccc1)Nc1ccc(S(=O)(=O)NC(=O)c2ccc(N3CCC([C@@H](O)c4ccccc4-c4ccc(Cl)cc4)CC3)cc2)cc1S(=O)(=O)C(F)(F)F` [AZD4320] + C1CN(CCC1(C(=O)N[C@@H](CCO)C2=CC=C(C=C2)Cl)N)C3=NC=NC4=C3C=CN4 [Capivasertib] (first compound max 1 µM, 7x7, partner max 3 µM), for which the “combination Emax” value is 0.226 in experiment [1]; 0.282 in [2]; 0.237 in experiment [3]; 0.153 in experiment [4]; 0.147 in experiment [5]; 0.39 in experiment [6]. For the same compound, the “combination Emax” value in experiment [7] was determined as 0.062; in experiment [8], 0.622; in experiment [9] it was 0.991; in experiment [10], 0.305; in [11] it was 0.51; in experiment [12], 0.901.

In the case of `CN(CCO)CC[C@H](CSc1ccccc1)Nc1ccc(S(=O)(=O)NC(=O)c2ccc(N3CCC([C@@H](O)c4ccccc4-c4ccc(Cl)cc4)CC3)cc2)cc1S(=O)(=O)C(F)(F)F` [AZD4320] + C=CCn1c(=O)c2cnc(Nc3ccc(N4CCN(C)CC4)cc3)nc2n1-c1cccc(C(C)(C)O)n1 [AZD1775] (first compound max 1 µM, partner max 1 µM), the “combination Emax” value was found to be 0.693 in experiment [1]; 0.865 in experiment [2]; 0.552 in experiment [3]; 0.271 in [4]; 0.949 in [5]; 0.504 in experiment [6]. In addition, the “combination Emax” value came out at 0.368 in experiment [7]; 0.966 in experiment [8]; 1 in experiment [9]; 0.778 in experiment [10]; 0.97 in experiment [11]; 0.994 in experiment [12].

For `CN(CCO)CC[C@H](CSc1ccccc1)Nc1ccc(S(=O)(=O)NC(=O)c2ccc(N3CCC([C@@H](O)c4ccccc4-c4ccc(Cl)cc4)CC3)cc2)cc1S(=O)(=O)C(F)(F)F` [AZD4320] + CCN(CCO)CCCOc1ccc2c(Nc3cc(CC(=O)Nc4cccc(F)c4)[nH]n3)ncnc2c1 [AZD2811] (first compound max 1 µM, 7x7, partner max 1 µM), the “combination Emax” value stood at 0.414 in experiment [1]; 0.513 in experiment [2]; 0.133 in experiment [3]; 0.391 in experiment [4]; 0.708 in [5]; 0.747 in [6]. In addition, the “combination Emax” value was found to be 0.0584 in experiment [7]; 0.94 in [8]; 1 in experiment [9]; 0.845 in experiment [10]; 0.76 in experiment [11]; 0.93 in [12].

As to `CN(CCO)CC[C@H](CSc1ccccc1)Nc1ccc(S(=O)(=O)NC(=O)c2ccc(N3CCC([C@@H](O)c4ccccc4-c4ccc(Cl)cc4)CC3)cc2)cc1S(=O)(=O)C(F)(F)F` [AZD4320] + CN(C)CCCOc1ccc(-c2ccc3ncc4c(c3c2)n(C2CCOCC2)c(=O)n4C)cn1 [AZD0156] (first compound max 1 µM, 7x7, partner max 1 µM), the “combination Emax” value was determined as 0.0694 in experiment [1]; 0.128 in [2]; 0.243 in experiment [3]; 0.129 in [4]; 0.172 in experiment [5]; 0.136 in experiment [6]. Also, the “combination Emax” value was 0.102 in experiment [7]; 0.461 in experiment [8]; 1 in [9]; 0.371 in experiment [10]; 0.377 in experiment [11]; 0.898 in [12].

Turning to `CN(CCO)CC[C@H](CSc1ccccc1)Nc1ccc(S(=O)(=O)NC(=O)c2ccc(N3CCC([C@@H](O)c4ccccc4-c4ccc(Cl)cc4)CC3)cc2)cc1S(=O)(=O)C(F)(F)F` [AZD4320] + C[C@@H]1COCCN1C2=NC(=NC(=C2)C3(CC3)[S@](=N)(=O)C)C4=C5C=CNC5=NC=C4 [AZD6738] (first compound max 1 µM, 7x7, partner max 10 µM), the “combination Emax” value in experiment [1] is 0.919; in experiment [2] it was 0.691; in [3] it was 0.492; in experiment [4] it was 0.443; in experiment [5], 0.816; in experiment [6], 0.587. Moreover, the “combination Emax” value in [7] is 0.546; in [8], 0.94; in experiment [9], 1; in experiment [10], 0.866; in [11] it was 0.972; in [12], 0.983.

Take `CN(CCO)CC[C@H](CSc1ccccc1)Nc1ccc(S(=O)(=O)NC(=O)c2ccc(N3CCC([C@@H](O)c4ccccc4-c4ccc(Cl)cc4)CC3)cc2)cc1S(=O)(=O)C(F)(F)F` [AZD4320] + Cc1cc2ncnn2cc1Nc1ncc2c(n1)n(C1CCOCC1)c(=O)n2C [AZD7648] (first compound max 1 µM, 7x7, partner max 10 µM): the “combination Emax” value in [1] amounted to 0.163; in [2] it was 0.226; in experiment [3], 0.265; in [4] it was 0.174; in experiment [5], 0.219; in [6], 0.362. The “combination Emax” value in experiment [7] is 0.0826; in experiment [8], 0.605; in [9], 0.982; in experiment [10] it was 0.447; in [11], 0.475; in experiment [12], 0.925.

Take `Cc1c2c(nn1C)CSCc1cc(n(C)n1)CSc1cc(c3ccccc3c1)OCCCc1c(C(=O)O)n(C)c3c-2c(Cl)ccc13` [AZD5991] + C1CN(CCC1(C(=O)N[C@@H](CCO)C2=CC=C(C=C2)Cl)N)C3=NC=NC4=C3C=CN4 [Capivasertib] (first compound max 1 µM, 7x7, partner max 3 µM): the “combination Emax” value in [1] worked out at 0.24; in experiment [2], 0.367; in experiment [3], 0.298; in experiment [4], 0.278; in [5] it was 0.676; in experiment [6], 0.383. In addition, the “combination Emax” value in experiment [7] was found to be 0.121; in experiment [8], 0.567; in [9], 0.454; in experiment [10], 0.302; in experiment [11], 0.909; in [12], 0.361.

With `Cc1c2c(nn1C)CSCc1cc(n(C)n1)CSc1cc(c3ccccc3c1)OCCCc1c(C(=O)O)n(C)c3c-2c(Cl)ccc13` [AZD5991] + C=CCn1c(=O)c2cnc(Nc3ccc(N4CCN(C)CC4)cc3)nc2n1-c1cccc(C(C)(C)O)n1 [AZD1775] (first compound max 1 µM, partner max 1 µM), the “combination Emax” value in experiment [1] turned out to be 0.613; in experiment [2], 0.84; in experiment [3], 0.541; in experiment [4] it was 0.326; in [5], 0.978; in experiment [6] it was 0.758. The “combination Emax” value worked out at 0.696 in experiment [7]; 0.937 in [8]; 0.961 in experiment [9]; 0.431 in [10]; 0.989 in [11]; 0.927 in [12].

As to `CCc1c2c(nc3ccc(O)cc13)-c1cc3c(c(=O)n1C2)COC(=O)[C@]3(O)CC` [SN-38] + O=C(c1cc(Cc2n[nH]c(=O)c3ccccc23)ccc1F)N1CCN(C(=O)C2CC2)CC1 [Olaparib] (first compound max 0.3 µM, 7x7, partner max 10 µM), the “combination Emax” value worked out at 0.973 in [1]; 0.42 in [4]; 0.587 in experiment [6]; 1 in experiment [8]; 0.889 in experiment [10]; 0.968 in experiment [11]. The “combination Emax” value in experiment [12] is 0.755.
